Test results from patent publication US4257941A, “Polycyclic nitrogen-containing compounds” (BASF Aktiengesellschaft, priority 1976, dated 1981).
Read-outs that look alike come from different tables or passages of the source.

Assays:
Format in all cases: in vivo
rice = assay: Action on rice (Example 23); conditions: leaf; for Plant height: 66 days; for Plant height relative: control 100
Description: At a growth height of 11 to 13 cm the active ingredients were sprayed onto the leaves in the usual manner. The plants were measured after 66 days.

sunflowers = assay: Action on sunflowers (Example 24); conditions: for Plant height relative: control 100
Text: The active ingredients were applied both to the soil and to the leaves.

Lamium spp. = assay: Herbicidal action (Example 25)
Description: (§1) Paraffined paper cups having a volume of 170 cm^3 were filled with a sandy loam, and the seeds of the test plants sown therein, separated by species. (The species are also listed below.)
(§2) In the first group, treatment was effected immediately after sowing and before germination of the seeds (preemergence treatment=soil treatment). Shallow sown seeds not completely covered with soil came into contact with the active ingredients. In the second group, the plants were treated postemergence (=leaf treatment) at a growth height of from 2 to 8 cm, depending on the rate of growth and shape of the species concerned. The compounds were suspended or emulsified in water and applied with the aid of fine nozzles. The soil and plants were thoroughly sprinkler irrigated for the duration of the experiment. The cups were placed in the greenhouse and kept in the temperature range 12°-25° C. or 18°-35° C., depending on the temperature requirements of the various species. After 2 to 6 weeks the action was assessed visually on a 0 to 100 scale, 0 denoting no damage and 100 denoting plants not germinated or completely destroyed.

Poa annua = assay: Herbicidal action (Example 25); conditions: Poa annua, read-out: percentage damage; for pest or weed control at 2000 g/ha: 2.0 kg/ha; for pest or weed control at 4000 g/ha: 4.0 kg/ha; for pest or weed control at 8000 g/ha: 8.0 kg/ha
Description: as §1, §2

Solanum nigrum = assay: Herbicidal action (Example 25)
Description: as §1, §2

Galium aparine = assay: Herbicidal action (Example 25); conditions: read-out: percentage damage; for pest or weed control at 2000 g/ha: 2.0 kg/ha; for pest or weed control at 4000 g/ha: 4.0 kg/ha; for pest or weed control at 8000 g/ha: 8.0 kg/ha
Description: as §1, §2

SMILES: Clc1ccc(N2N=NC3C4CC(C5N=NC45)C32)cc1 (stereo not drawn) [drawing 404]
- Plant height (rice; 1.0 kg/ha): 35.0 cm
- Plant height relative (rice; 1.0 kg/ha): 86.2
- Plant height (rice; 2.0 kg/ha): 33.0 cm
- Plant height relative (rice; 2.0 kg/ha): 81.3
- Plant height (rice; 4.0 kg/ha): 29.5 cm
- Plant height relative (rice; 4.0 kg/ha): 72.7
- Plant height (rice; 6.0 kg/ha): 28.5 cm
- Plant height relative (rice; 6.0 kg/ha): 70.2

SMILES: Brc1ccc(N2N=NC3C4CC(C5N=NC45)C32)cc1 (stereo not drawn) [drawing 405]
- Plant height (rice; 1.0 kg/ha): 37.0 cm
- Plant height relative (rice; 1.0 kg/ha): 91.1
- Plant height (rice; 2.0 kg/ha): 37.0 cm
- Plant height relative (rice; 2.0 kg/ha): 91.1
- Plant height (rice; 4.0 kg/ha): 34.5 cm
- Plant height relative (rice; 4.0 kg/ha): 85.0
- Plant height (rice; 6.0 kg/ha): 33.5 cm
- Plant height relative (rice; 6.0 kg/ha): 82.5

SMILES: Clc1ccc(N2N=NC3C4CC(C5N=NC45)C32)cc1 (stereo not drawn) [drawing 406]
- Plant height (sunflowers; soil, 3.0 kg/ha): 26.5 cm
- Plant height relative (sunflowers; soil, 3.0 kg/ha): 73
- Plant height (sunflowers; soil, 12.0 kg/ha): 15.5 cm
- Plant height relative (sunflowers; soil, 12.0 kg/ha): 43

SMILES: Brc1ccc(N2N=NC3C4CC(C5N=NC45)C32)cc1 (stereo not drawn) [drawing 407]
- Plant height relative (sunflowers; soil, 3.0 kg/ha): 84
- Plant height (sunflowers; soil, 12.0 kg/ha): 22.5 cm
- Plant height relative (sunflowers; soil, 12.0 kg/ha): 62

SMILES: Clc1ccc(N2N=NC3C4CC(C5N=NC45)C32)cc1 (stereo not drawn) [drawing 408]
- Plant height relative (sunflowers; leaf, 1.5 kg/ha): 78
- Plant height (sunflowers; leaf, 6.0 kg/ha): 25.5 cm
- Plant height relative (sunflowers; leaf, 6.0 kg/ha): 67

SMILES: Brc1ccc(N2N=NC3C4CC(C5N=NC45)C32)cc1 (stereo not drawn) [drawing 409]
- Plant height (sunflowers; leaf, 1.5 kg/ha): 33.0 cm
- Plant height relative (sunflowers; leaf, 1.5 kg/ha): 86
- Plant height (sunflowers; leaf, 6.0 kg/ha): 30.0 cm
- Plant height relative (sunflowers; leaf, 6.0 kg/ha): 78

SMILES: c1csc(N2N=NC3C4CC(C5N=NC45)C32)n1 (stereo not drawn) [drawing 432]
- percentage damage (Lamium spp.; postemergence, 2.0 kg/ha): 55 percentage damage
- percentage damage (Lamium spp.; postemergence, 4.0 kg/ha): 60 percentage damage
- percentage damage (Lamium spp.; postemergence, 8.0 kg/ha): 95 percentage damage
- percentage damage (Lamium spp.; preemergence, 2.0 kg/ha): 95 percentage damage
- percentage damage (Lamium spp.; preemergence, 4.0 kg/ha): 95 percentage damage
- percentage damage (Lamium spp.; preemergence, 8.0 kg/ha): 95 percentage damage
- pest or weed control at 2000 g/ha (Poa annua; post-emergence, postemergence): 38%
- pest or weed control at 4000 g/ha (Poa annua; post-emergence, postemergence): 52%
- pest or weed control at 8000 g/ha (Poa annua; post-emergence, postemergence): 68%
- pest or weed control at 2000 g/ha (Poa annua; pre-emergence, preemergence): 80%
- pest or weed control at 4000 g/ha (Poa annua; pre-emergence, preemergence): 92%
- pest or weed control at 8000 g/ha (Poa annua; pre-emergence, preemergence): 95%
- percentage damage (Solanum nigrum; postemergence, 2.0 kg/ha): 90 percentage damage
- percentage damage (Solanum nigrum; postemergence, 4.0 kg/ha): 95 percentage damage
- percentage damage (Solanum nigrum; postemergence, 8.0 kg/ha): 100 percentage damage
- percentage damage (Solanum nigrum; preemergence, 2.0 kg/ha): 95 percentage damage
- percentage damage (Solanum nigrum; preemergence, 4.0 kg/ha): 95 percentage damage
- percentage damage (Solanum nigrum; preemergence, 8.0 kg/ha): 95 percentage damage
- pest or weed control at 2000 g/ha (Galium aparine; post-emergence, postemergence): 10%
- pest or weed control at 4000 g/ha (Galium aparine; post-emergence, postemergence): 18%
- pest or weed control at 8000 g/ha (Galium aparine; post-emergence, postemergence): 30%
- pest or weed control at 2000 g/ha (Galium aparine; pre-emergence, preemergence): 72%
- pest or weed control at 4000 g/ha (Galium aparine; pre-emergence, preemergence): 98%
- pest or weed control at 8000 g/ha (Galium aparine; pre-emergence, preemergence): 90%
